Data taken from article PMC7026882, “Macrofilaricidal Benzimidazole–Benzoxaborole Hybrids as an Approach to the Treatment of River Blindness: Part 2. Ketone Linked Analogs” (ACS Infectious Diseases, 2019).
Like-named read-outs stand apart in the source and are kept apart here.

Legend:
[1] = test system: mammalian tubulin (G2/M arrest); test: G2/M arrest assay, indicative of interaction with mammalian tubulin; assay type: cell-based
Description: (§1) As summarized in Table 1, we were encouraged to find that the initial ketone analogs prepared, namely, 15 (6-linked) and 20 (5-linked), were quite active in an O. volvulus molting assay we used as a primary indicator of antiparasitic activity[30],[31] and were only weakly active in a G2/M arrest,[32] indicative of the interaction with mammalian tubulin. As described above, our hypothesis was to reduce Pgp efflux liability through elimination of the hydrogen-bond donor associated with the N–H of the amide linker, as this has been shown in the literature to be a contributor to recognition by Pgp.[33],[34] […] We were disappointed to find that the 5-linked analog 22 was poorly selective and the 6-linked analog 23 was only weakly active.

O. volvulus = O. volvulus molting assay; assay type: cell-based; conditions: Onchocerca volvulus; for IC50: molting assay
Description: as §1, with “active. […]” for “active.”
(§2) in comparison to the number of control larvae that had successfully molted. IC50 values were calculated using GraphPad Prism v6.0 (http://www.graphpad.com). See Bullman et al., PLoS
(§3) Negl. Trop. Dis., 2015, 9, e3534 for further details.
(§4) Adult Brugia malayi in vivo model procedure.
(§5) Gerbils (Meriones unguiculatus) were infected by transplantation of 10 male and 10 female adult Brugia malayi into the peritoneal cavity. Gerbils were acclimated for 7 days prior to treatment. Animals were dosed based on their body weight prior to each dosing. Animals were administered their doses at the same time each day and receive standard rodent laboratory diet and water ad libitum. Gerbils were humanely euthanized at the conclusion of each study.
(§6) Peritoneal counts of male and female adult B. malayi and visual condition of the peritoneum […]
(§7) L3 Brugia pahangi in vivo model procedure.
(§8) Male gerbils (Meriones unguiculatus) approximately 6 weeks of age (50-60 g) were purchased from Charles Rivers (USA, Kingston K62 Gerbils) and infected by intraperitoneal injection with 200 Brugia pahangi third-stage larvae (L3) per animal (Filariatech, Inc., Athens, GA). Gerbils were housed with no more than 5 animals per cage and maintained 9 months prior to treatment. All gerbils were dosed in accordance with their body weight determined prior to each dosing. Animals were administered their doses at the same time each day and are allowed to feed and drink ad libitum. Gerbils were euthanized following approved institutional protocols. Euthanized animals were weighed and examined for external and visceral pathologies. The adult Brugia worms were recovered by opening the body cavity and washing the peritoneal cavity with 100 mL of phosphate buffered saline. Male and female worms were counted using a dissecting microscope.
(§9) Litomosoides sigmodontis in vivo model procedure. 2
(§10) All animal experiments with L. sigmodontis were conducted at the Institute for Medical Microbiology, Immunology and Parasitology (IMMIP), University Hospital of Bonn, in accordance to the European Union animal welfare guidelines. All protocols were approved by the local authorities (Landesamt für Natur, Umwelt und Verbraucherschutz, Cologne, Germany (AZ 84- […]
(§11) Janvier (Saint-Berthevin, France) and were housed at the animal facility of the IMMIP in individually ventilated cages on a 12h light/dark cycle with food and water ad libidum. Mice were infected at 6-8 weeks of age via exposure to the natural mite vector Ornithonyssus bacoti

[2] = Metabolic stability (Clint) in gerbil microsomes; assay type: in vitro ADME
Description: as §1

P-gp (MDR1) = test: MDCK-MDR1 cell monolayer permeability assay; assay type: in vitro ADME; conditions: dog
Description: as §1

[3] = Metabolic stability (Clint) in human microsomes; assay type: in vitro ADME
Description: as §1

[4] = Pharmacokinetics in Mongolian gerbils; assay type: in vivo; conditions: blood, Mongolian gerbils; for AUC(0-t): read-out: AUC0–24; for Cmax: read-out: Cmax; for bioavailability: po, read-out: bioavailability (%F)
Description: In addition, the concentrations achieved at these doses were well in excess of the O. volvulus IC50, a requirement for in vivo activity that we had hypothesized on the basis of earlier work in the amide-linked series.

Brugia pahangi = test: In vivo efficacy in the L3 Brugia pahangi gerbil model
Description: For our in vivo model, gerbils were infected by injecting B. pahangi third-stage larvae (L3) that were subsequently allowed to develop to adult worms over several months. Once stable infections had been established, 21 was administered as a suspension via once-daily oral gavage at a dose of 100 mg/kg for 7, 14, or 28 days. All animals were maintained until day 63 after the start of dosing, at which time adult worms were recovered from the peritoneal cavity and microfilariae were quantified in blood samples. Flubendazole (5 mg/kg, SC × 5 days) was included as a positive control in this study. […]
as §2, §3, §4, §5, §6, §7, §8, §9, §10, §11

[5] = test system: P-glycoprotein transporter (Pgp); set-up: method as in PMID 30650084; conditions: limits oral bioavailability; cited from earlier work
[6] = test system: LF (lymphatic filariasis); set-up: method as in PMID 30650084; conditions: by route of administration; cited from earlier work
[7] = SC, 10 mg/kg, 5 days, QD, positive control

Compound: COC(=O)Nc1nc2cc(C(=O)c3ccc4c(c3)B(O)O[C@@H]4C)ccc2[nH]1 (single isomer, unassigned) [compound 24]
- IC50 [1]: > 100000 nM
- inhibition at 1 µM (O. volvulus): 2%
- IC50 (O. volvulus): > 1000 nM

Compound: COC(=O)Nc1nc2cc(C(=O)c3ccc4c(c3)B(O)O[C@H]4C)ccc2[nH]1 (single isomer, unassigned) [compound 25]
- IC50 [1]: > 100000 nM
- IC50 (O. volvulus): 40 nM
- microsomal CLint [2]: < 4 µL/min/mg
- Papp A→B (P-gp (MDR1)): 15.5 ×10⁻⁶ cm/s
- microsomal CLint [3]: < 4 µL/min/mg

Compound: COC(=O)Nc1nc2cc(C(=O)c3cccc4c3B(O)O[C@@H]4C)ccc2[nH]1 (single isomer, unassigned) [compound 29]
- IC50 [1]: 5600 nM
- IC50 (O. volvulus): 100 nM
- microsomal CLint [2]: < 4 µL/min/mg
- Papp A→B (P-gp (MDR1)): 57.2 ×10⁻⁶ cm/s
- microsomal CLint [3]: < 4 µL/min/mg

Compound: COC(=O)Nc1nc2cc(C(=O)c3cccc4c3B(O)O[C@H]4C)ccc2[nH]1 (single isomer, unassigned) [compound 30]
- IC50 [1]: 12200 nM
- IC50 (O. volvulus): 110 nM
- microsomal CLint [2]: < 4 µL/min/mg
- Papp A→B (P-gp (MDR1)): 34.3 ×10⁻⁶ cm/s
- microsomal CLint [3]: < 4 µL/min/mg
- AUC(0-t) ([4]; 2 mg/kg, dose 2, IV): 14600 ng·h/mL
- Cmax ([4]; 2 mg/kg, dose 2, IV): 7580 ng/mL
- AUC(0-t) ([4]; 10 mg/kg, dose 10, PO): 141000 ng·h/mL
- Cmax ([4]; 10 mg/kg, dose 10, PO): 14000 ng/mL
- bioavailability ([4]; 10 mg/kg, dose 10, PO): ~100%

Compound: COC(=O)Nc1nc2cc(C(=O)c3ccc(F)cc3)ccc2[nH]1 [compound 3, flubendazole, reference compound]
- Number of Worms Recovered, Avg Female Worms (Brugia pahangi; [7]): 0.0
- Number of Worms Recovered, Avg Male Worms (Brugia pahangi; [7]): 0.0
- worms recovered from positive control group (Brugia pahangi; given SC): no worms recovered
- IC50 [1]: 670 nM
- IC50 (O. volvulus): 4 nM
- microsomal CLint [2]: < 4 µL/min/mg
- Papp A→B (P-gp (MDR1); A-B, read-out: MDCK-MDR1 Papp (A-B)): 15.6 ×10⁻⁶ cm/s

Compound: COC(=O)Nc1nc2cc(C(=O)NCc3ccc4c(c3)B(O)OC4(C)C)ccc2[nH]1 [compound 4]
- efflux via P-glycoprotein transporter (Pgp) [5]: subject to efflux
- activity in in vivo models of LF [6]: only active in in vivo models of LF following subcutaneous administration

Compound: COC(=O)Nc1nc2cc(C(=O)c3ccc4c(c3)B(O)OC4)ccc2[nH]1 [compound 15]
- IC50 [1]: 12300 nM
- IC50 (O. volvulus): 118 nM
- microsomal CLint [2]: 8.25 µL/min/mg
- Papp A→B (P-gp (MDR1)): 6 ×10⁻⁶ cm/s
- AUC(0-t) ([4]; 2 mg/kg, dose 2, IV): 880 ng·h/mL
- Cmax ([4]; 2 mg/kg, dose 2, IV): 2260 ng/mL
- AUC(0-t) ([4]; 10 mg/kg, dose 10, PO): 790 ng·h/mL
- Cmax ([4]; 10 mg/kg, dose 10, PO): 270 ng/mL
- bioavailability ([4]; 10 mg/kg, dose 10, PO): 18%

Compound: COC(=O)Nc1nc2cc(C(=O)c3cccc4c3COB4O)ccc2[nH]1 [compound 19]
- IC50 [1]: > 100000 nM
- IC50 (O. volvulus): 1590 nM
- Papp A→B (P-gp (MDR1)): 28.3 ×10⁻⁶ cm/s
- microsomal CLint [3]: 5.56 µL/min/mg

Compound: COC(=O)Nc1nc2cc(C(=O)c3ccc4c(c3)COB4O)ccc2[nH]1 [compound 20]
- IC50 [1]: 9800 nM
- IC50 (O. volvulus): 112 nM
- microsomal CLint [2]: 11.7 µL/min/mg
- Papp A→B (P-gp (MDR1)): 11.7 ×10⁻⁶ cm/s
- AUC(0-t) ([4]; 2 mg/kg, dose 2, IV): 1160 ng·h/mL
- Cmax ([4]; 2 mg/kg, dose 2, IV): 2000 ng/mL
- AUC(0-t) ([4]; 10 mg/kg, dose 10, PO): 990 ng·h/mL
- Cmax ([4]; 10 mg/kg, dose 10, PO): 480 ng/mL
- bioavailability ([4]; 10 mg/kg, dose 10, PO): 17%

Compound: COC(=O)Nc1nc2cc(C(=O)c3ccc4c(c3)C(C)(C)OB4O)ccc2[nH]1 [compound 22]
- IC50 [1]: 280 nM
- IC50 (O. volvulus): 10 nM
- Papp A→B (P-gp (MDR1)): 26.2 ×10⁻⁶ cm/s

Compound: COC(=O)Nc1nc2ccc(C(=O)c3ccc4c(c3)B(O)OC4(C)C)cc2[nH]1 [compound 23]
- IC50 [1]: > 100000 nM
- inhibition at 1 µM (O. volvulus): 0%
- IC50 (O. volvulus): > 1000 nM
- Papp A→B (P-gp (MDR1)): 20.7 ×10⁻⁶ cm/s

Compound: COC(=O)Nc1nc2ccc(C(=O)c3ccc(F)c4c3B(O)OC4)cc2[nH]1 [compound 26]
- IC50 [1]: 30300 nM
- IC50 (O. volvulus): 20 nM
- microsomal CLint [2]: 11.6 µL/min/mg
- Papp A→B (P-gp (MDR1)): 21.7 ×10⁻⁶ cm/s
- microsomal CLint [3]: 11.1 µL/min/mg
- AUC(0-t) ([4]; 2 mg/kg, dose 2, IV): 18600 ng·h/mL
- Cmax ([4]; 2 mg/kg, dose 2, IV): 10900 ng/mL
- AUC(0-t) ([4]; 10 mg/kg, dose 10, PO): 23500 ng·h/mL
- Cmax ([4]; 10 mg/kg, dose 10, PO): 1690 ng/mL
- bioavailability ([4]; 10 mg/kg, dose 10, PO): 24%

Compound: COC(=O)Nc1nc2ccc(C(=O)c3cc(F)cc4c3B(O)OC4)cc2[nH]1 [compound 27]
- IC50 [1]: 22000 nM
- IC50 (O. volvulus): 270 nM
- microsomal CLint [2]: < 4 µL/min/mg
- Papp A→B (P-gp (MDR1)): 32 ×10⁻⁶ cm/s
- microsomal CLint [3]: < 4 µL/min/mg

Compound: COC(=O)Nc1nc2ccc(C(=O)c3c(F)ccc4c3B(O)OC4)cc2[nH]1 [compound 28]
- IC50 [1]: > 100000 nM
- IC50 (O. volvulus): 1310 nM

Compound: COC(=O)Nc1nc2ccc(C(=O)c3ccc(Cl)c4c3B(O)OC4)cc2[nH]1 [compound 31]
- IC50 [1]: 11600 nM
- IC50 (O. volvulus): 30 nM
- microsomal CLint [2]: < 4 µL/min/mg
- Papp A→B (P-gp (MDR1)): 28 ×10⁻⁶ cm/s
- microsomal CLint [3]: < 4 µL/min/mg

Compound: COC(=O)Nc1nc2cc(C(=O)CCc3ccc4c(c3)B(O)OC4(C)C)ccc2[nH]1 [compound 32]
- IC50 [1]: 460 nM
- IC50 (O. volvulus): 290 nM
- microsomal CLint [2]: 26.7 µL/min/mg
- Papp A→B (P-gp (MDR1)): 16 ×10⁻⁶ cm/s
- microsomal CLint [3]: 7.63 µL/min/mg

Compound: COC(=O)Nc1nc2cc(C(=O)CCCc3ccc4c(c3)B(O)OC4(C)C)ccc2[nH]1 [compound 33]
- IC50 [1]: 20 nM
